The source of these data is patent US20240269139A1, “COMPOUNDS FOR TARGETED PROTEIN DEGRADATION OF KINASES” (DANA-FARBER CANCER INSTITUTE, INC., priority 2020, published 2024).

For experiment [1], the system named is protein kinases in MOLT-4 cells. As to the kind of experiment: Whole cell quantitative proteomics in MOLT-4 cells. Conditions: MOLT-4, 1 μM, 5 h.
Procedure: (§1) Whole cell multiplexed quantitative proteomics was employed to measure changes in abundance of the proteome in response to treatment with each of the kinase degrader molecules relative to DMSO (Table 1, Appendix I).
(§2) Cells were treated with DMSO (biological triplicate) or degrader at indicated dose and time and cells were harvested by centrifugation. […] Precipitated protein was resuspended in 4 M Urea, 50 mM HEPES pH 7.4, followed by dilution to 1 M urea with the addition of 200 mM EPPS, pH 8. Proteins were first digested with LysC (1:50: enzyme:protein) for 12 hours at room temperature. The LysC digestion was diluted to 0.5 M Urea with 200 mM EPPS pH 8 followed by digestion with trypsin (1:50; enzyme:protein) for 6 hours at 37° C. Tandem mass tag (TMT) reagents (Thermo Fisher Scientific) were dissolved in anhydrous acetonitrile (ACN) according to manufacturer's instructions. […] The 10, 11, or 16-plex labeling reactions were performed for 1.5 hours at room temperature and the reaction quenched by the addition of hydroxylamine to a final concentration of 0.3% for 15 minutes at room temperature. The sample channels were combined at a 1:1 ratio, desalted using C18 solid phase extraction cartridges (Waters®) and analyzed by LC-MS for channel ratio comparison. Samples were then combined using the adjusted volumes determined in the channel ratio analysis and dried down in a speed vacuum. The combined sample was then resuspended in 1% formic acid, and acidified (pH 2-3) before being subjected to desalting with C18 SPE (Sep-Pak®, Waters®). Samples were then offline fractionated into 96 fractions by high pH reverse-phase HPLC (Agilent® LC1260) through an aeris peptide xb-c18 column (Phenomenex®) with mobile phase A containing 5% acetonitrile and 10 mM NH4HCO3 in LC-MS grade H2O, and mobile phase B containing 90% acetonitrile and 10 mM NH4HCO3 in LC-MS grade H2O (both pH 8.0). The 96 resulting fractions were then pooled in a non-continuous manner into 24 fractions and desalted using C18 solid phase extraction plates (SOLA®, Thermo Fisher Scientific) followed by subsequent mass spectrometry analysis.
(§3) Data were collected using an Orbitrap Fusion™ Lumos™ mass spectrometer (Thermo Fisher Scientific, San Jose, CA, USA) coupled with a Proxeon EASY-nLC™ 1200 LC pump (Thermo Fisher Scientific) or an Orbitrap Eclipse™ Tribrid™ mass spectrometer (Thermo Fisher Scientific, San Jose, CA, USA) coupled with an UltiMate™ 3000 RSLCnano System. Peptides were separated on an EasySpray™ ES803a/ES803a.rev2 75 μm inner diameter microcapillary column (ThermoFisher Scientific).
(§4) Data dependent MS2 spectra were acquired in the ion trap with a normalized collision energy (NCE) set at 35%, AGC target set to 1.8×10^4 and a maximum injection time of 120 ms. MS3 scans were acquired in the Orbitrap with HCD collision energy set to 55%. AGC target set to 2×10^5, maximum injection time of 150 ms, resolution at 50,000 and with a maximum synchronous precursor selection (SPS) precursors set to 10.
(§5) Proteome Discoverer™ 2.1, 2.2 or 2.4 (Thermo Fisher Scientific) was used for .RAW file processing and controlling peptide and protein level false discovery rates, assembling proteins from peptides, and protein quantification from peptides.
Experiment [2] addresses protein kinases in MOLT-4 cells (Homo sapiens, UniProt P41240). In words: Whole cell quantitative proteomics in MOLT-4 cells. Conditions: compared with the library; MOLT-4, 1 μM, 5 h.
Procedure: as §1, §2, §3, §4, §5
Experiment [3] has as its system protein kinases (human kinome). It counts as cell-based. To be noted: for kinases the bifunctional compound degrades: as stated for the structure in the embodiments; for Kinase hits: kinases significantly downregulated vs DMSO (fold change cutoff −1.25, P-value<0.01), ≤8 h, 0.1-5 μM degrader, 7 cell lines; for Total no. kinase hits: number of degraded kinases per library compound.

Experiment [4] addresses protein kinases (human kinome) (Homo sapiens, UniProt P29597). It counts as cell-based. To be noted: experiment wp195.
Experiment [5] has as its target T1, protein kinases (human kinome) (Homo sapiens, UniProt P29323).
T1 sequence (P29323 19-1055): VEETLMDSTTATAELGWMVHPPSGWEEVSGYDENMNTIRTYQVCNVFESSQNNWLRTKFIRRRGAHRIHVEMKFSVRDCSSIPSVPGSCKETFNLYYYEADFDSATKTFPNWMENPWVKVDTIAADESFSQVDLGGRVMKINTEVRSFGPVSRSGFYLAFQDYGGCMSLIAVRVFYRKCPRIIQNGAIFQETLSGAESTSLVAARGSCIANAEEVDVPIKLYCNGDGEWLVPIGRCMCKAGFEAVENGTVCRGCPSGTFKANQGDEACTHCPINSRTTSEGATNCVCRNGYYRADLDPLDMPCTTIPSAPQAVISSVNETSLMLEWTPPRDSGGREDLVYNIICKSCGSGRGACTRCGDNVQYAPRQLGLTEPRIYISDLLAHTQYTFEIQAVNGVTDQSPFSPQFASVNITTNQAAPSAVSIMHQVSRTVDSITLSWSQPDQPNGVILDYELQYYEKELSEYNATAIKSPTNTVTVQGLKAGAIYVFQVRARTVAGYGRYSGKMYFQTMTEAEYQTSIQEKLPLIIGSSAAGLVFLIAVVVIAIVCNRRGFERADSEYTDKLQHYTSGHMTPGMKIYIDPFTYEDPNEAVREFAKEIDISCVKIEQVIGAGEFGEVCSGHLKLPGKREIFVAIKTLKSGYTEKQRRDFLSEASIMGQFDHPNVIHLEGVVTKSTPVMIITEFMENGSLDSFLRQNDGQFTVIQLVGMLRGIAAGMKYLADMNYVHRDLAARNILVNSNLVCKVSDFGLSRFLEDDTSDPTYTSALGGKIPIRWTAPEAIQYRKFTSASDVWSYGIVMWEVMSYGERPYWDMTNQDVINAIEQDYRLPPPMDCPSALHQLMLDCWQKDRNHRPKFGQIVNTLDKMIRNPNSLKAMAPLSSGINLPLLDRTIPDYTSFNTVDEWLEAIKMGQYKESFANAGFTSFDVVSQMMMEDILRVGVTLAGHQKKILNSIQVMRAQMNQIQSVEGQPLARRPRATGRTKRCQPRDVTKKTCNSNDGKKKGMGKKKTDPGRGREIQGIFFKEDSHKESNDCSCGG
It counts as cell-based.

Experiment [6] concerns the target protein kinases (human kinome) (Homo sapiens, UniProt P42684). It counts as cell-based.
Experiment [7] has as its target protein kinases (human kinome) (Homo sapiens, UniProt Q9H0K1). It counts as cell-based. To be noted: experiment wp195.
A further experiment has as its system MM1.S cells. In words: CellTiter-Glo viability assay. The class given is cell-based, H. sapiens. Conditions: MM.1S multiple myeloma cell line, 72 hours. How it is done: MM1.S (purchased from ATCC) was seeded in a 96-well microplate at 10,000 cells per […] well in RPMI-1(40 media supplemented with 10% FBS and incubated with compounds (final DMSO concentration at 0.1%). Relative cell viability was measured 72 hours after drug addition using CellTiter-Glo® (Promega) according to the manufacturer's protocol. Each analysis was performed in biological triplicate.

In experiment [8] the target is protein kinases in MOLT-4 cells (Homo sapiens, UniProt O14965). In words: Whole cell quantitative proteomics in MOLT-4 cells. To be noted: MOLT-4, 1 μM, 5 h; validated by immunoblotting. On the technique in general: In western blotting, separated proteins are transferred to a membrane and probed.
Sequence of protein kinases in MOLT-4 cells (Homo sapiens, UniProt O14965) (O14965 whole entry): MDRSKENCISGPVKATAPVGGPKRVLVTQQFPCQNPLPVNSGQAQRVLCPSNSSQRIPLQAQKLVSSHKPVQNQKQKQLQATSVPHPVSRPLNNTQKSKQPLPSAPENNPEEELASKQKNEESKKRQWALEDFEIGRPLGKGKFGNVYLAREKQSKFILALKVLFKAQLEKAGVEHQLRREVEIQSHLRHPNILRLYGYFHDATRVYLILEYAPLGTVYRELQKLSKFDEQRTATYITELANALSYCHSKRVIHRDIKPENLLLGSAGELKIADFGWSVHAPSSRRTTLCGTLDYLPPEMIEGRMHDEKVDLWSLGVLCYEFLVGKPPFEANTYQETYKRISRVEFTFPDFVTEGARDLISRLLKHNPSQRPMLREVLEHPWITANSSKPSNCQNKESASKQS
Procedure: as §1, §2, §3, §4, §5
Experiment [9] addresses extended human kinome (kinase-like proteins) (Homo sapiens, UniProt Q16875). As to the kind of experiment: Whole cell quantitative proteomics: extended kinome hits. Conditions: Accession Q16875; experiment wp068.
The target in experiment [10] is protein kinases (human kinome) (Homo sapiens, UniProt Q96BR1). The class given is cell-based.
Sequence of protein kinases (human kinome) (Homo sapiens, UniProt Q96BR1) (Q96BR1 whole entry): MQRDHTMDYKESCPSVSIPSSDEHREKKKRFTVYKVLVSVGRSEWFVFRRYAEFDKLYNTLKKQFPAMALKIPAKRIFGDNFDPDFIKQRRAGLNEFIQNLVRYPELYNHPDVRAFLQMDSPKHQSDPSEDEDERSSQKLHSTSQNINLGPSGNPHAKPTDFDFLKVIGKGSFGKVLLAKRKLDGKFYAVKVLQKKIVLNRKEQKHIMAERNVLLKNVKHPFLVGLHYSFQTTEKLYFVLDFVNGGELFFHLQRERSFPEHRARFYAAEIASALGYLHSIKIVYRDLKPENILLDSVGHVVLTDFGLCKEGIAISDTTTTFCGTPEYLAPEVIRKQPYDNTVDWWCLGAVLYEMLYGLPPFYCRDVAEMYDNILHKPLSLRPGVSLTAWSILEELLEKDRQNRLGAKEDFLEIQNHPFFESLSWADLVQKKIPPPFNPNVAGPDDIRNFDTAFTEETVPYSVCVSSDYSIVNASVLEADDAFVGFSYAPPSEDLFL
Experiment [11] concerns the target protein kinases (human kinome) (Homo sapiens, UniProt P49840). The class given is cell-based. Conditions: GSK3A P49840; experiment wp068.
For experiment [12], the target named is protein kinases (human kinome) (Homo sapiens, UniProt P48736). It counts as cell-based.
Sequence of protein kinases (human kinome) (Homo sapiens, UniProt P48736) (P48736 whole entry): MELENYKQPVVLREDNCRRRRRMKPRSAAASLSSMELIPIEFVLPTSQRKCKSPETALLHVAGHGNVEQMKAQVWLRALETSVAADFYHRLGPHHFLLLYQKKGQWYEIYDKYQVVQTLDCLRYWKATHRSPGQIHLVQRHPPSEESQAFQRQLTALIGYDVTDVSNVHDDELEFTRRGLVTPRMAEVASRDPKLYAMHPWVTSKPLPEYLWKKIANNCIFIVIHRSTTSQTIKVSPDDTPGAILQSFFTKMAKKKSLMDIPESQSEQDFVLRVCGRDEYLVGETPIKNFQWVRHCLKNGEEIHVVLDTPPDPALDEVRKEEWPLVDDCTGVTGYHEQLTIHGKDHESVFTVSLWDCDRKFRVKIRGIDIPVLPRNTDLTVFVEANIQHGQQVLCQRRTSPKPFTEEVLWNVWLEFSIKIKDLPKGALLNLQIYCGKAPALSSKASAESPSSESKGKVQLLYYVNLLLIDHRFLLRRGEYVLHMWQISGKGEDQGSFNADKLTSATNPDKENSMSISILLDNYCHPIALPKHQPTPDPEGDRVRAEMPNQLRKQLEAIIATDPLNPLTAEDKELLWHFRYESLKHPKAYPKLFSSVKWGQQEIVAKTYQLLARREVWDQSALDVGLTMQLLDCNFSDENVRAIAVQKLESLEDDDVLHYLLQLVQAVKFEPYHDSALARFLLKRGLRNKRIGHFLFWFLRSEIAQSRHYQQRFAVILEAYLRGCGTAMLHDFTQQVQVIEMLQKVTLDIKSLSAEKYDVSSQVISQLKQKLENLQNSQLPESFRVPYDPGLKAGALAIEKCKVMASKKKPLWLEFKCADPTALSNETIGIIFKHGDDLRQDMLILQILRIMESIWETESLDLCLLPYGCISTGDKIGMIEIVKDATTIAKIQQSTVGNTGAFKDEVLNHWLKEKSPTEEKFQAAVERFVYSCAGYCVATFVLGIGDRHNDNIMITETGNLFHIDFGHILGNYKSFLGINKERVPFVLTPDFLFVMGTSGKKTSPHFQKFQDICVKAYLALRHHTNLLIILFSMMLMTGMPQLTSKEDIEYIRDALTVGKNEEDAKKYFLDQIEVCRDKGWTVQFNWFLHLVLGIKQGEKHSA
Experiment [13] concerns the target T2, protein kinases (human kinome) (Homo sapiens, UniProt Q9UQ88).
T2 sequence (Q9UQ88 1-783): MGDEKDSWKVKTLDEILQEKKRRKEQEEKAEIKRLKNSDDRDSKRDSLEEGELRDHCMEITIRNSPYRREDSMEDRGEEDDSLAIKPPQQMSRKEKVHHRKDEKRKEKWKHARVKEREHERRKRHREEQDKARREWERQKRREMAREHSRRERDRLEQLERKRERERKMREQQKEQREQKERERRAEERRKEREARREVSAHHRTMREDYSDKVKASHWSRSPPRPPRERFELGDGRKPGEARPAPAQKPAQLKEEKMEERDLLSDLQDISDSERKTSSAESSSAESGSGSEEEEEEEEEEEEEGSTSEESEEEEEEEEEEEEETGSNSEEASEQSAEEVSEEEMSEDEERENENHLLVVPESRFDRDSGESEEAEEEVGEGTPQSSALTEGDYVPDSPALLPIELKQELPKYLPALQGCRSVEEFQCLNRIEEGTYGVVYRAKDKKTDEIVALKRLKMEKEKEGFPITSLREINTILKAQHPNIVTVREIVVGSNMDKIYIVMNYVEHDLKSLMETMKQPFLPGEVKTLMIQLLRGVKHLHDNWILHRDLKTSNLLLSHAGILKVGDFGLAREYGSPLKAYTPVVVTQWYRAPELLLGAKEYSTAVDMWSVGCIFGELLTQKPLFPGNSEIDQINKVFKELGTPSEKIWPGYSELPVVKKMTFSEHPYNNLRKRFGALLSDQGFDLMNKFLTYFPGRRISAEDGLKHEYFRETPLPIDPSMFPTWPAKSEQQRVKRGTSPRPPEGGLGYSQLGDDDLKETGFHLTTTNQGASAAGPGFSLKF
The class given is cell-based.

[14] abbreviates: Experiment wp068, direction of change down.
The mark [15] stands for this setting: CLK1 P49759-3, experiment wp068.

Structures are written as SMILES. Read-outs that look alike come from different tables or passages of the source.

Sequence of protein kinases (human kinome) (Homo sapiens, UniProt Q9H0K1) (Q9H0K1 whole entry): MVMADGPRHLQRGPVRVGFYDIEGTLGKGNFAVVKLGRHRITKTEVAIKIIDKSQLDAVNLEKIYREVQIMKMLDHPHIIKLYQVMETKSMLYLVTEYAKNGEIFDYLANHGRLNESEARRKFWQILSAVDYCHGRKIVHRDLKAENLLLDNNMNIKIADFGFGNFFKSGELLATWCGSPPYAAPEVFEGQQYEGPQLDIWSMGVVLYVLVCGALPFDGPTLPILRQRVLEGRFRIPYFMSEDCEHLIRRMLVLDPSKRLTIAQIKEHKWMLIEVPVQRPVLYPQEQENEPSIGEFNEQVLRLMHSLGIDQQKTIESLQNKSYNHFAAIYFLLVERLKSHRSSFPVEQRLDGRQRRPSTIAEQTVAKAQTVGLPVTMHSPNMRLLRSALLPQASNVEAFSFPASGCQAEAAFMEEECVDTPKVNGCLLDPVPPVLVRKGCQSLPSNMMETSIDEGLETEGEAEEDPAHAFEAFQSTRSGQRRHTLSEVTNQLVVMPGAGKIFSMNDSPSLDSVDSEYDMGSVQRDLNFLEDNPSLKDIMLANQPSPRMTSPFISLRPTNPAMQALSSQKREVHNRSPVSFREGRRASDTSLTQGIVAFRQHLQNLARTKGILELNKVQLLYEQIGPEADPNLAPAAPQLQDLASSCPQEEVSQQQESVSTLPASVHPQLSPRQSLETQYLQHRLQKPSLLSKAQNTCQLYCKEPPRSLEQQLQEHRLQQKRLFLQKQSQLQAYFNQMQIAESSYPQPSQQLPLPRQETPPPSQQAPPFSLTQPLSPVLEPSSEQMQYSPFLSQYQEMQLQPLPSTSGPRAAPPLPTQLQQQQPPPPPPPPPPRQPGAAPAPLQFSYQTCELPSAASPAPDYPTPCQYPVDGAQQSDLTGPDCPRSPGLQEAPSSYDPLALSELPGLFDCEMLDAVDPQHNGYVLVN
Sequence of protein kinases (human kinome) (Homo sapiens, UniProt P29597) (P29597 whole entry): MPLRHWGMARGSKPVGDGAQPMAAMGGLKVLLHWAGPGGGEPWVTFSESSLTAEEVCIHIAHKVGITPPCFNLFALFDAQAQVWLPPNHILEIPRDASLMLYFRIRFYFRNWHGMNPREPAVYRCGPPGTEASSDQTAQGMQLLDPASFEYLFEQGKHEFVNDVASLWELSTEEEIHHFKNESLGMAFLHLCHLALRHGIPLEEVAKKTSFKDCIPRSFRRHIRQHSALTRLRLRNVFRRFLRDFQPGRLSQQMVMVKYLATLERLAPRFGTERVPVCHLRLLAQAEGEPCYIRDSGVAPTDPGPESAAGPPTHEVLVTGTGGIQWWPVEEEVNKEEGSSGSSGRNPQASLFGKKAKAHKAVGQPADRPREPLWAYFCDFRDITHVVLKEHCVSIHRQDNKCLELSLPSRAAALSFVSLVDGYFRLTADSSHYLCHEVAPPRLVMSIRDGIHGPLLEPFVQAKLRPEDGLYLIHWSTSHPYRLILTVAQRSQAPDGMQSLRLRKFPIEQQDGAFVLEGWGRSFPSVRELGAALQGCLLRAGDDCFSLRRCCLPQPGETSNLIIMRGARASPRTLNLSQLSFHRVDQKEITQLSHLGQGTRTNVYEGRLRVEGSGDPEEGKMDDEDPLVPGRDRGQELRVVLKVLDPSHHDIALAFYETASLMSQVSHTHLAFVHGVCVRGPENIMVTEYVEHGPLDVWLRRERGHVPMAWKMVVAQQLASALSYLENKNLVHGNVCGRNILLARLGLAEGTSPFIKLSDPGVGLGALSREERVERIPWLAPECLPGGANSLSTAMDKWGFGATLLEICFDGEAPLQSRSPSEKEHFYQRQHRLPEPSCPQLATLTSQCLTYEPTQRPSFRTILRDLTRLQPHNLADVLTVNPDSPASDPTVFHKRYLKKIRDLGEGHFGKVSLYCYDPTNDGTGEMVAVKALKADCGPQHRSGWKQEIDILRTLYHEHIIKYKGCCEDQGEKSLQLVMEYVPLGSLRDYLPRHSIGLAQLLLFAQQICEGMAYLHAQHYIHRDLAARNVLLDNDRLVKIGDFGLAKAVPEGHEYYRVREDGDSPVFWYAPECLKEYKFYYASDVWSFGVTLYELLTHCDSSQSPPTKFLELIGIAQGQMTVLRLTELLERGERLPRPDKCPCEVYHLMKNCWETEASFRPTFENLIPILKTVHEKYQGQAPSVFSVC
Sequence of protein kinases (human kinome) (Homo sapiens, UniProt P49840) (P49840 whole entry): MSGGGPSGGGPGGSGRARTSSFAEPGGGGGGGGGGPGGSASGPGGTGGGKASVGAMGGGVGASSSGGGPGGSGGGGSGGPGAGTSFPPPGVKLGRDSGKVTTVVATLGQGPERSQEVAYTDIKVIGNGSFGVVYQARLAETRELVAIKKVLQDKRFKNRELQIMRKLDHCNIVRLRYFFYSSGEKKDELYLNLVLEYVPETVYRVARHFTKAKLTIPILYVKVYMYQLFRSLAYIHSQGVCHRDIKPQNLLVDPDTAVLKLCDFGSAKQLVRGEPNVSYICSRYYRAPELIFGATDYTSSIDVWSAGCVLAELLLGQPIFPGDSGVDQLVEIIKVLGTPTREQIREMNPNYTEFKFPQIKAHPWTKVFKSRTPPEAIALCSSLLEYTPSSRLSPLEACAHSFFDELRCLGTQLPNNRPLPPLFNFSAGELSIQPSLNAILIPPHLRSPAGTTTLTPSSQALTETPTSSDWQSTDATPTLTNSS
Sequence of protein kinases in MOLT-4 cells (Homo sapiens, UniProt P41240) (P41240 whole entry): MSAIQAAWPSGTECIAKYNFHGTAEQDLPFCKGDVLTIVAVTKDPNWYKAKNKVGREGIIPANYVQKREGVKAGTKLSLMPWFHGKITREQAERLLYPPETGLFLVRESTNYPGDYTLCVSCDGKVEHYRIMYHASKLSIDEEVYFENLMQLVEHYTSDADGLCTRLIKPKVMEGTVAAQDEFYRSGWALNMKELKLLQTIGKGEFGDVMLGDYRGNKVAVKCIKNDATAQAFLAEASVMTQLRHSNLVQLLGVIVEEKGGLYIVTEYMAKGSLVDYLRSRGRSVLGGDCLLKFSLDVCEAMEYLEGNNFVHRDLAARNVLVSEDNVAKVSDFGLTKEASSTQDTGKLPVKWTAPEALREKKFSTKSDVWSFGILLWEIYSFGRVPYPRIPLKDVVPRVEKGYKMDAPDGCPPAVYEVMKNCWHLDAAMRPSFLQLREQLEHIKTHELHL

As for `Cc1nc(Nc2ncc(C(=O)Nc3c(C)cccc3Cl)s2)cc(N2CCN(CC(=O)NCCCCNC(=O)COc3cccc4c3C(=O)N(C3CCC(=O)NC3=O)C4=O)CC2)n1` (stereo not drawn) [DB-3-291, N-(2-chloro-6-methylphenyl)-2-((6-(4-(2-((4-(2-((2-(2,6-dioxopiperidin-3-yl)-1,3-dioxoisoindolin-4-yl)oxy)acetamido)butyl)amino)-2-oxoethyl)piperazin-1-yl)-2-methylpyrimidin-4-yl)amino)thiazole-5-carboxamide], the “selectivity among CSK degraders” value in experiment [1] is listed as “greatest selectivity”. Moreover, the “degradation of CSK” value in experiment [2] is “strongest degradation of CSK”. For the same compound, in experiment [3], the “kinases the bifunctional compound degrades” value was “ABL2, BLK, CSK, and WEE1”; the Kinase hits result was “ABL2, BLK, CSK, WEE1”; the “Total no. kinase hits” value amounted to 4.

With `Cc1ncsc1-c1ccc([C@H](C)NC(=O)[C@@H]2C[C@@H](O)CN2C(=O)[C@@H](NC(=O)CCCCCCc2ccc(Nc3ncc4c(n3)-c3ccccc3NC(=O)N4)cc2)C(C)(C)C)cc1` [JWG.148], the “logFC TYK2 (P29597)” value in experiment [4] (direction of change down) is on record as −0.5187. In experiment [4] (protein TYK2 (P29597), down), the “logFC TYK2” value is −0.5187. In addition, the logFC is given as −0.3596 in experiment [5] (EPHB2 (P29323), experiment wp195) and −0.516 in [6] (ABL2 (P42684) protein abundance, degrader vs DMSO, down). In addition, in [5] (Experiment wp195), the “logFC of EPHB2 (P29323)” value is −0.3596. In addition, the “logFC ABL2 (P42684)” value in experiment [6] (Experiment wp195) is −0.516. Besides, the “logFC of SIK2” value in [7] (Accession Q9H0K1) was −0.455. Also, in experiment [7] (direction of change down), the “logFC SIK2 (Q9H0K1)” value is −0.455.

`COc1cc(Nc2ncc3c(n2)-c2ccc(Cl)cc2C(c2c(F)cccc2OC)=NC3)ccc1C(=O)NCCCOCCOCCOCCCNC(=O)COc1cccc2c1C(=O)N(C1CCC(=O)NC1=O)C2=O` (stereo not drawn) [dAURK-4, -((9-chloro-7-(2-fluoro-6-methoxyphenyl)-5H-benzo[c]pyrimido[4,5-e]azepin-2-yl)amino)-N-(1-((2-(2,6-dioxopiperidin-3-yl)-1,3-dioxoisoindolin-4-yl)oxy)-2-oxo-7,10,13-trioxa-3-2174 azahexadecan-16-yl)-2-methoxybenzamide]: the antiproliferative effects entry in the experiment with MM1.S cells is given as “superior antiproliferative effects over parental inhibitor alisertib”. In addition, the “degradation of AURKA” value in experiment [8] was “potent and selective degradation”. Further, in experiment [3], the “kinases the bifunctional compound degrades” value was “AURKA and AURKB”; the Kinase hits result is on record as “AURKA, AURKB”; the “Total no. kinase hits” value is given as 2.

On to `O=C1CCC(N2C(=O)c3cccc(NCCOCCOCCOCCOCCC(=O)Nc4cccc(CN5CCC(NC(=O)c6[nH]ncc6NC(=O)c6c(Cl)cccc6Cl)CC5)c4)c3C2=O)C(=O)N1` (stereo not drawn) [FMF.04.147.1], for which the “logFC PFKFB3” value in experiment [9] is given as −0.4462. For the same compound, in experiment [10] (setting [14]), the “logFC SGK3 (Q96BR1-1)” value was −0.3389. Also, the logFC in [10] (SGK3 (Q96BR1-1), experiment wp068) was −0.3389; in experiment [11], −0.5346; in experiment [3] (CDK9 (P50750-2) protein abundance, degrader vs DMSO, down) it was −0.9142; in experiment [3] (setting [15]), −0.6462; in experiment [12] (PIK3CG (P48736), experiment wp068), −0.3581; in experiment [13] (CDK11A (Q9UQ88-1), experiment wp068) it was −0.7386. Besides, the “logFC GSK3A” value in [11] is −0.5346. Also, the “logFC GSK3B” value is on record as −0.6218 in experiment [3] (Accession P49841-2, experiment wp068, direction down) and −0.6218 in [3] (GSK3B P49841-2, experiment wp068). Besides, the “logFC CLK1” value in experiment [3] (setting [15]) is recorded as −0.6462. Moreover, the “logFC CDK9 (P50750-2)” value in experiment [3] (Experiment wp068) is listed as −0.9142. Moreover, the “logFC PIK3CG (P48736)” value in experiment [12] (setting [14]) is given as −0.3581. In addition, in experiment [13] (Experiment wp068), the “logFC of CDK11A (Q9UQ88-1)” value is reported as −0.7386.
